{
  "source": "patent EP2488179B1",
  "about": "“NRF2 INHIBITORS AND USE THEREOF” (priority 2009, dated 2011)",
  "format_in_all_cases": "cell-based",
  "key": {"Nrf2": {"tested_on": "Nrf2", "assay": "ARE-pGL3 luciferase reporter assay for screening Nrf2 inhibitors in transformed HEK293 cells", "protocol": "Oligomers including an ARE site (SEQ ID NOS: 1 to 10, Bioneer Corp., Ltd., Korea) were synthesized and treated with Kpnl and M1 ul restriction enzymes. The oligomers were inserted into a pGL3 luciferase plasmid (Promega, USA) treated with the Kpnl and M1ul restriction enzymes using a ligase (Promega, USA) to prepare ARE-pGL3 luciferase. […] Besides the plasmid, pcDNA3.1 (Invitrogen, USA) plasmid including a Neo gene was used together as a selection plasmid to select a transformed cell using G418 (neomycin) as a selectable factor.\nHEK293 cells were purchased from the American Type Culture Collection (ATCC) and cultured in a Dulbecco's modified Eagle's medium (DMEM) supplemented with 10% fetal bovine serum (FBS), 100 µg/ml of streptomycin, and 100 units/ml of penicillin under 5% CO2 conditions at 37°C. A transformation by which the ARE-pGL3 luciferase was introduced into the HEK293cell was performed using Lipofectamine 2000™ (Invitrogen, Calsbad, CA, USA). Activity of luciferase was measured using a Luciferase Assay Kit (Promega, Medison, WI, USA). […] Based on the result, ARE-pGL3 luciferase plasmid including 4(1/2)xARE-2 having a sequence of SEQ ID NO: 10 was used as a plasmid for screening an Nrf2 inhibitor.\nAfter the transformation performed according to Example 1-(2), transformed HEK293 cells that expressed both ARE-pGL3 luciferase and pcDNA3.1 were selected using a culture medium including G418 (600µg/ml) and used as a cell line for screening the Nrf2 inhibitor. 20,000 cells were inoculated into each well of a 96-well plate and cultured for 24 hours under the conditions described above in Example 1-(2). […] Transformed cells that stably expressed the ARE-pGL3 luciferase plasmid were selected, and 8,000 candidate substances, low molecular weight single compounds were used to screen the Nrf2 inhibitor. Each candidate substance was added to each well to a final concentration of 10 µM. The wells were incubated for 18 hours, and the luciferase activity was measured using a Victor 3 Luminometer (Perkin Elmer, USA)."}, "Nrf2 protein": {"tested_on": "Nrf2 protein", "assay": "Western blotting of Nrf2 protein", "conditions": "FIG. 3b", "protocol": "(§1) In order to identify whether the 3-[(4-biphenylyloxy)methyl]piperidine hydrochloride, the selected Nrf2 inhibitor, acted on the ARE site to inhibit the binding of the Nrf2 transcription factor, and thereby inhibiting the expression of antioxidant enzymes, protein expression was analyzed. The increase in the amount of HO-1 protein by the tBHQ treatment was assayed after treating cells with the 3-[(4-biphenylyloxy)methyl]piperidine hydrochloride followed by treatment with tBHQ with a 2-hour gap between the treatments. Cytoplasmic fractions were obtained from the cells treated as described above using a method commonly used in the art. The fractions were separated using a 10% gradient SDS-PAGE, and then transferred to a nitrocellulose membrane (BioRad, Hercules, CA, USA). The membrane was blocked with a 5% skim milk and screened with an anti-Nrf2 antibody (Abcam, USA) and a HO-1 antibody (Oncogene Research Products, USA). The result was visualized by a reaction with a horseradish peroxidase-conjugated anti-rat IgG antibody (Santa Cruz Biotechnology, Inc.) using a thermostat and then with an ECL system (GE, USA)."}, "[1]": {"tested_on": "SKOV3 ovarian cancer cells", "assay": "CCK-8 viability assay, alone and combined with Doxorubicin", "conditions": "48 hours", "protocol": "(§2) H1299 lung cancer cells, SKOV3 ovarian cancer cells, U87-MG brain cancer cells, and HT29 colorectal cancer cells were respectively inoculated into a 96-well plate including a Rosewell Park Memorial Institute medium 1640 (RPMI 1640) supplemented with 10% FBS, 100 µg/ml of streptomycin, and 100 unit/ml of penicillin. Each well was treated with 0.2, 2, 5, and 10 µM 3-[(4-biphenylyloxy)methyl]piperidine hydrochloride, and then treated with 0.15 µM Doxorubicin, an anti-cancer agent after 2 hours therefrom. The wells were cultured under 5% CO2 conditions at 37°C for 48 hours, and the killing effect of the cancer cells was assayed using a CCK-8 viability assay kit (Dojindo, Japan)."}, "[2]": {"tested_on": "HT29 colorectal cancer cells", "assay": "CCK-8 viability assay, alone and combined with Doxorubicin", "conditions": "48 hours", "protocol": "as §2"}, "[3]": {"tested_on": "U87-MG brain cancer cells", "assay": "CCK-8 viability assay, alone and combined with Doxorubicin", "conditions": "48 hours", "protocol": "as §2"}, "H1299 lung cancer cells [4]": {"tested_on": "H1299 lung cancer cells", "assay": "CCK-8 viability assay, alone and combined with Doxorubicin", "conditions": "48 hours", "protocol": "as §2"}, "[5]": {"tested_on": "HT29 colorectal cancer cells", "assay": "Clonogenic assay with radiation (methylene blue staining)", "conditions": "1, 5, and 10 µM with 2, 4, and 6 Gy radiation, 7 days", "protocol": "(§3) H1299 lung cancer cells, U87-MG brain cancer cells, or HT29 colorectal cancer cells were respectively inoculated into a 6 cm plate including a RPMI 1640 supplemented with 10% FBS, 100 µg/ml of streptomycin, and 100 unit/ml of penicillin. The plate was treated with the selected 1, 5, and 10 µM 3-[(4-biphenylyloxy)methyl]piperidine hydrochloride, the Nrf2 inhibitor, exposed to 2, 4, and 6 Gy -radiation, and cultured under 5% CO2 conditions at 37°C for 7 days. The cultured cells were washed with a phosphate buffered saline (PBS) and stained with a 1% methylene blue in 100% methanol. Then, the number of alive cells that formed colonies was calculated three times."}, "[6]": {"tested_on": "U87-MG brain cancer cells", "assay": "Clonogenic assay with radiation (methylene blue staining)", "conditions": "1, 5, and 10 µM with 2, 4, and 6 Gy radiation, 7 days", "protocol": "as §3"}, "H1299 lung cancer cells [7]": {"tested_on": "H1299 lung cancer cells", "assay": "Clonogenic assay with radiation (methylene blue staining)", "conditions": "1, 5, and 10 µM with 2, 4, and 6 Gy radiation, 7 days", "protocol": "as §3"}, "HO-1 mRNA": {"tested_on": "HO-1 mRNA", "assay": "Semi-quantitative RT-PCR of HO-1 mRNA", "conditions": "inhibitor, then tBHQ after 2 hours; GAPDH control; FIG. 3a", "protocol": "After 2 hours from the treatment of 3-[(4-biphenylyloxy)methyl]piperidine chloride, the selected Nrf2 inhibitor, RNA expression was assayed in order to measure the increase in the amount of heme oxygenase (HO)-1 mRNA by tBHQ treatment. mRNA was isolated from the cells treated with 3-[(4-biphenylyloxy)methyl]piperidine hydrochloride, using an RNA extraction kit (Qiagen, USA) and identified using a spectrometer (Amersham Biosciences, USA). cDNA was obtained from the mRNA using a reverse transcriptase (Promega, USA), and PCR was conducted using the cDNA as a template and primers having sequences SEQ ID NOS: 11 and 12 to measure the expression level of HO-1 mRNA. The PCR was performed with 25 cycles, each of which consisting of a denaturation at 94°C for 30 seconds, an annealing at 55°C for 30 seconds, and an extension at 72°C for 1 minute. The DNA obtained using the PCR was electrophoresed in a 1.5% agarose gel, stained using ethidium bromide, and observed under UV rays. […] It is believed that the 3-[(4-biphenylyloxy)methyl]piperidine hydrochloride that is selected as the Nrf2 inhibitor using the ARE-pGL3 luciferase plasmid in Example 1 acted on the ARE site to inhibit the activity of the Nrf2 transcription factor."}, "HO-1 protein": {"tested_on": "HO-1 protein", "assay": "Western blotting of HO-1 protein", "conditions": "FIG. 3b", "protocol": "as §1"}, "HEK293 cells": {"tested_on": "HEK293 cells", "assay": "CCK-8 viability assay (absorbance at 450 nm) on the screening cells", "conditions": "CCK-8, absorbance at 450 nm, FIG. 2b", "protocol": "In addition, in order to confirm that the inhibition of the luciferase activity is not caused by the death of a cell but by the Nrf2 inhibitor, absorbance was measured using a CCK-8 viability assay kit (Dojindo, Japan) and a spectrometer (Lab Systems, USA) at 450 nm."}, "[8]": {"tested_on": "MB231 breast cancer cells", "assay": "FACS of propidium iodide stained cells after radiation", "conditions": "1 µM with 5 Gy radiation, 48 hours; compared to 5Gy radiation therapy", "protocol": "(§4) In order to measure whether a treatment of MB231 breast cancer cells and SKOV3 ovarian cancer cells with a combination of 3-[(4-biphenylyloxy)methyl]piperidine chloride, the selected Nrf2 inhibitor, and radiation therapy increase or synergistically increase the killing of cancer cells by apoptosis, the cancer cells were treated with 1 µM 3-[(4-biphenylyloxy)methyl]piperidine hydrochloride, exposed to 5 Gy radiation, and cultured under 5% CO2 conditions at 37°C for 48 hours. The cultured cells were collected and stained with propidium iodide, and cell cycles were analyzed using a fluorescence activated cell sorting (FACS)."}, "[9]": {"tested_on": "SKOV3 ovarian cancer cells", "assay": "FACS of propidium iodide stained cells after radiation", "conditions": "1 µM with 5 Gy radiation, 48 hours; compared to 5Gy radiation therapy", "protocol": "as §4"}, "[10]": {"conditions": "inhibitor then tBHQ with a 2-hour gap, cytoplasmic fractions, concentration-dependent"}, "[11]": {"conditions": "0.2, 2, 5, and 10 µM, then 0.15 µM Doxorubicin after 2 hours, compared to Doxorubicin alone"}, "[12]": {"conditions": "compound alone, 0.2, 2, 5, and 10 µM"}},
  "data": [
    {"compound": "Cl.c1ccc(-c2ccc(OCC3CCCNC3)cc2)cc1", "note": "(stereo not shown) [3-[(4-biphenylyloxy)methyl]piperidine hydrochloride]", "values": [
      {"measurement": "activity of the luciferase", "setting": "Nrf2; concentration dependence, FIG. 2a", "value": "inhibited the activity of the luciferase in a concentration-dependent manner"},
      {"measurement": "activity of the luciferase", "setting": "Nrf2; screening, final concentration of 10 µM, incubated for 18 hours", "value": "inhibits the activity of the luciferase"},
      {"measurement": "amount of Nrf2 protein", "setting": "Nrf2 protein; [10]", "value": "reduced"},
      {"measurement": "killing effect of a combination with Doxorubicin", "setting": "[1]; [11]", "value": "significantly increased in a concentration-dependent manner"},
      {"measurement": "effect on the viability", "setting": "[1]; [12]", "value": "negligible"},
      {"measurement": "killing effect of a combination with Doxorubicin", "setting": "[2]; [11]", "value": "significantly increased in a concentration-dependent manner"},
      {"measurement": "effect on the viability", "setting": "[2]; [12]", "value": "negligible"},
      {"measurement": "killing effect of a combination with Doxorubicin", "setting": "[3]; [11]", "value": "significantly increased in a concentration-dependent manner"},
      {"measurement": "effect on the viability", "setting": "[3]; [12]", "value": "negligible"},
      {"measurement": "killing effect of a combination with Doxorubicin", "setting": "H1299 lung cancer cells [4]; [11]", "value": "significantly increased in a concentration-dependent manner"},
      {"measurement": "effect on the viability", "setting": "H1299 lung cancer cells [4]; [12]", "value": "negligible"},
      {"measurement": "sensitivity of cells to radiation", "setting": "[5]", "value": "increased or synergistically increased the sensitivity of cells to radiation"},
      {"measurement": "sensitivity of cells to radiation", "setting": "[6]", "value": "increased or synergistically increased the sensitivity of cells to radiation"},
      {"measurement": "sensitivity of cells to radiation", "setting": "H1299 lung cancer cells [7]", "value": "increased or synergistically increased the sensitivity of cells to radiation"},
      {"measurement": "expression of HO-1 mRNA", "setting": "HO-1 mRNA", "value": "inhibited in a dose-dependent manner"},
      {"measurement": "amount of HO-1 protein", "setting": "HO-1 protein; [10]", "value": "reduced"},
      {"measurement": "cell toxicity", "setting": "HEK293 cells", "value": "does not have cell toxicity"},
      {"measurement": "killing effect of the combination with radiation", "setting": "[8]", "value": 4.3, "unit": "times"},
      {"measurement": "killing effect of the combination with radiation", "setting": "[9]", "value": "twice"}
    ]},
    {"compound": "CC(C)(C)c1cc(O)ccc1O", "note": "[tBHQ, tertiary butylhydroquinone, reference compound]", "values": [
      {"measurement": "activity of the luciferase", "setting": "Nrf2; tBHQ added to the culture, activates the ARE", "value": "increased twice"},
      {"measurement": "amount of Nrf2 protein", "setting": "Nrf2 protein; treatment with tBHQ", "value": "increased"},
      {"measurement": "amount of HO-1 protein", "setting": "HO-1 protein; treatment with tBHQ", "value": "increased"}
    ]}
  ]
}
